Assay results published in publication PMC4890880 (ACS infectious diseases, 2016).
Read-outs that look alike come from different tables or passages of the source.

Assays:
[1] = tested on: Plasmodium berghei (Pb-Luc) exoerythrocytic-stage parasites; experiment: microbe, parasite or virus in culture
HepG2-A16-CD81EGFP cells = details: human, 50 uM
[2] = read-out: Inhibition% @ 50 uM rep1
[3] = read-out: Inhibition% @ 50 uM rep2

In the case of Oc1ccc2ccccc2c1CNc1nc2ccccc2[nH]1 [MMV011832], the inhibition at 50 µM [1, 2] is reported as 99%, the inhibition at 50 µM [1, 3] is reported as 101% and the “HepG2 Tox% @ 50 uM rep1” value (HepG2-A16-CD81EGFP cells) is reported as 100%.

In the case of COc1ccc(C(=O)Nc2ccc3nc(N4CCCCC4)cc(C)c3c2)cc1OC [MMV019758], the inhibition at 50 µM [1, 2] is reported as 104%, the inhibition at 50 µM [1, 3] is reported as 104% and the “HepG2 Tox% @ 50 uM rep1” value (HepG2-A16-CD81EGFP cells) is reported as 101%. The “HepG2 Tox% @ 50 uM rep2” value (HepG2-A16-CD81EGFP cells) was 101%.

For CCn1c(CN2CCN(Cc3ccccc3)CC2)nc2cc(NC(=O)c3cccs3)ccc21 [MMV020439], the inhibition at 50 µM [1, 2] was 99%, the inhibition at 50 µM [1, 3] was 102% and the “HepG2 Tox% @ 50 uM rep1” value (HepG2-A16-CD81EGFP cells) was 98%. For the same molecule, the “HepG2 Tox% @ 50 uM rep2” value (HepG2-A16-CD81EGFP cells) was 99%.

In the case of CN(C)CCCNCc1ccc(-c2ccc(F)c(Cl)c2)o1 [MMV020505], the inhibition at 50 µM [1, 2] is reported as 98%, the inhibition at 50 µM [1, 3] is reported as 98% and the “HepG2 Tox% @ 50 uM rep1” value (HepG2-A16-CD81EGFP cells) is reported as 96%.

With CCC(O)c1ccc(Br)cc1NC(=O)c1cccc(Cl)c1 (stereo not drawn) [MMV020654] the inhibition at 50 µM [1, 2] was 104%, the inhibition at 50 µM [1, 3] was 106% and the “HepG2 Tox% @ 50 uM rep1” value (HepG2-A16-CD81EGFP cells) was 101%. For the same molecule, the “HepG2 Tox% @ 50 uM rep2” value (HepG2-A16-CD81EGFP cells) was 101%.

In the case of COc1cc(-c2nc(-c3ccccc3)c(-c3ccccc3)[nH]2)cc(OC)c1O [MMV020750], the inhibition at 50 µM [1, 2] is reported as 103%, the inhibition at 50 µM [1, 3] is reported as 104% and the “HepG2 Tox% @ 50 uM rep1” value (HepG2-A16-CD81EGFP cells) is reported as 102%.

For COc1ccc(C=C2SC(Nc3ccc(F)cc3)=NC2=O)c(OC)c1 [MMV084434], the inhibition at 50 µM [1, 2] was 103%, the inhibition at 50 µM [1, 3] was 104% and the “HepG2 Tox% @ 50 uM rep1” value (HepG2-A16-CD81EGFP cells) was 100%.

For OC(CNCC1CCCO1)Cn1c2ccc(Cl)cc2c2cc(Cl)ccc21 (stereo not drawn) [MMV396736], the inhibition at 50 µM [1, 2] was 101%, the inhibition at 50 µM [1, 3] was 101% and the “HepG2 Tox% @ 50 uM rep1” value (HepG2-A16-CD81EGFP cells) was 98%. For the same molecule, the “HepG2 Tox% @ 50 uM rep2” value (HepG2-A16-CD81EGFP cells) was 99%.

With CC(C)CNC(=O)c1c(N)n(CCc2ccccc2F)c2nc3ccccc3nc12 [MMV396744] the inhibition at 50 µM [1, 2] was 101%, the inhibition at 50 µM [1, 3] was 103% and the “HepG2 Tox% @ 50 uM rep1” value (HepG2-A16-CD81EGFP cells) was 99%. The “HepG2 Tox% @ 50 uM rep2” value (HepG2-A16-CD81EGFP cells) was 99%.

CCOC(=O)c1cnc2ccc(OC)cc2c1NCc1ccccc1 [MMV665813] was tested, and the inhibition at 50 µM [1, 2] was 103%, the inhibition at 50 µM [1, 3] was 104% and the “HepG2 Tox% @ 50 uM rep1” value (HepG2-A16-CD81EGFP cells) was 102%.

OC(CNC1CCCCC1)Cn1c2ccc(I)cc2c2cc(I)ccc21 (stereo not drawn) [MMV665882] was tested, and the inhibition at 50 µM [1, 2] was 103%, the inhibition at 50 µM [1, 3] was 104% and the “HepG2 Tox% @ 50 uM rep1” value (HepG2-A16-CD81EGFP cells) was 100%.

With COc1ccc2nc(N)nc(C)c2c1 [MMV665897] the inhibition at 50 µM [1, 2] was 100%, the inhibition at 50 µM [1, 3] was 101% and the “HepG2 Tox% @ 50 uM rep1” value (HepG2-A16-CD81EGFP cells) was 97%.

With N=c1n(CCN2CCCCC2)c2ccccc2n1CC(O)c1cccc(Br)c1 (stereo not drawn) [MMV665902] the inhibition at 50 µM [1, 2] was 104%, the inhibition at 50 µM [1, 3] was 105% and the “HepG2 Tox% @ 50 uM rep1” value (HepG2-A16-CD81EGFP cells) was 101%. The “HepG2 Tox% @ 50 uM rep2” value (HepG2-A16-CD81EGFP cells) was 102%.

FC(F)(F)c1cccc(CNC2CCN(CCc3ccccc3)CC2)c1 [MMV665979] was tested, and the inhibition at 50 µM [1, 2] was 101%, the inhibition at 50 µM [1, 3] was 99% and the “HepG2 Tox% @ 50 uM rep1” value (HepG2-A16-CD81EGFP cells) was 99%. The “HepG2 Tox% @ 50 uM rep2” value (HepG2-A16-CD81EGFP cells) was 99%.

In the case of COc1ccc(CNC2CCN(c3ccc(NC(=O)c4cccc(Cl)c4)cc3)CC2)cc1OC [MMV666067], the inhibition at 50 µM [1, 2] is reported as 102%, the inhibition at 50 µM [1, 3] is reported as 99% and the “HepG2 Tox% @ 50 uM rep1” value (HepG2-A16-CD81EGFP cells) is reported as 98%. For the same molecule, the “HepG2 Tox% @ 50 uM rep2” value (HepG2-A16-CD81EGFP cells) was 99%.

With COc1ccc(CCN2CCC(CN(C)Cc3cnn(-c4ccccc4)c3)CC2)cc1 [MMV666069] the inhibition at 50 µM [1, 2] was 101%, the inhibition at 50 µM [1, 3] was 103% and the “HepG2 Tox% @ 50 uM rep1” value (HepG2-A16-CD81EGFP cells) was 99%. For the same molecule, the “HepG2 Tox% @ 50 uM rep2” value (HepG2-A16-CD81EGFP cells) was 100%.

For COc1ccccc1C(=O)ON=C(N)Cc1cccc2ccccc12 [MMV666686], the inhibition at 50 µM [1, 2] was 104%, the inhibition at 50 µM [1, 3] was 104% and the “HepG2 Tox% @ 50 uM rep1” value (HepG2-A16-CD81EGFP cells) was 101%.
